Activity calls are given as the source filed them.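 Rule for the calls: active = maximal inhibition of USP17 at or above 30% in the confirmation dose-response, a value not among the printed readouts; inactive = the rest.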
Biological target: Ubiquitin carboxyl-terminal hydrolase 17-like protein 5 (Homo sapiens) (UniProt A8MUK1)
Assay: ubiquitin-specific protease 17 DUB inhibitors, concentration-effect assay, cell-free, verification of initial screening actives (AID 1645864)
Details: purified USP17, ubiquitin-rhodamine cleavage fluorescence, 3 h

Sequence of Ubiquitin carboxyl-terminal hydrolase 17-like protein 5 (Homo sapiens) (A8MUK1 whole entry, looked up): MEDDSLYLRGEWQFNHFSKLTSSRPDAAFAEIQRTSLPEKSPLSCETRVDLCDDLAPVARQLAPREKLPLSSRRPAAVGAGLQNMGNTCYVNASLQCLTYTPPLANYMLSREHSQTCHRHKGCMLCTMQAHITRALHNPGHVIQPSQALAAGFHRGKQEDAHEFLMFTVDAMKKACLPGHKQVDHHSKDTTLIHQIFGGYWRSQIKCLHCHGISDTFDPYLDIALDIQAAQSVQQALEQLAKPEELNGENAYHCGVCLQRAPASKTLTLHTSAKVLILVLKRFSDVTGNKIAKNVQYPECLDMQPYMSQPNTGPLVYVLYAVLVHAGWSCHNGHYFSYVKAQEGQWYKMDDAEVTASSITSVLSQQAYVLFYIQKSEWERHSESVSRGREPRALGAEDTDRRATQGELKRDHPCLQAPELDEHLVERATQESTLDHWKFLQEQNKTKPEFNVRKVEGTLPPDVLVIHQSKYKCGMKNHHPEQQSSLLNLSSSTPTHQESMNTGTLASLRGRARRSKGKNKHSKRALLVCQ

| Structure (SMILES) | IC50 |
| --- | --- |
| O=C(O)C1CCN(Cc2c(-c3ccco3)nc3ccc(Cl)cn23)CC1 | > 50 µM (inactive) |
| O=C(c1cnccn1)N1CCc2[nH]c3ccc(F)cc3c2C1 | > 50 µM (inactive) |
| Cc1nc(-c2ccc3c(c2)nnn3CCN2CCOCC2)no1 | > 50 µM (inactive) |
| Cc1nn(-c2ccccc2)c(C)c1C(=O)OCC(=O)Nc1cccc(Br)c1 | 40.6 µM |
| COc1c2c(cc3cc(O)c4c(=O)cc(C)oc4c13)CCC2=O | 34.3 µM |
| O=C(Nc1ccccc1)c1cn2c3c(cccc3c1=O)CC2 | 26.9 µM |
| COC1=CC(=O)c2c(O)c(C)c(CC(C)=O)c(O)c2C1=O | 2.87 µM |
| O=C(CNS(=O)(=O)c1ccc(F)cc1)N1CCCC(c2nnc3ccccn23)C1 (stereo not given) | > 50 µM (inactive) |
| COc1ccc(NC(=O)C2CCCN(S(=O)(=O)N3CCCCCC3)C2)cc1 (stereo not given) | 29.7 µM |
| O=C(Nc1ccc2c(c1)OCCO2)c1cc(CN2CCOCC2)on1 | > 50 µM (inactive) |
| CCOC(=O)c1ccc(NC(=O)Cn2c(=O)n(CC(=O)NCCc3ccc(OC)c(OC)c3)c(=O)c3sccc32)cc1 | 2.51 µM |
| CCN1C(SCc2ccc(F)cc2)=NS(=O)(=O)c2ccccc21 | > 50 µM (inactive) |
| CC(=O)Nc1ccc(-n2cnc(C(=O)NCc3ccc(C)cc3)c2)nc1 | 27.1 µM |
| Fc1ccccc1N1CCN(c2ncc3c(n2)CCN(Cc2ccccn2)C3)CC1 | 43 µM |
| COc1ccc(-c2cc3nc([C@H](C)NC(=O)Cc4cccc(F)c4)nn3cn2)cc1 | 3.75 µM |
| O=C(O)c1ccccc1C(=O)Nc1ccc(SC(C(=O)Nc2cccc(Cl)c2)c2ccccc2)cc1 (stereo not given) | 23.4 µM |
| O=C(COC(=O)c1ccc(Cl)cc1)Nc1ccc2[nH]c(=O)[nH]c2c1 | 9.91 µM |
| Cc1cc(=O)c2c(O)oc(O)c3c(O)cc(=O)c1c32 | 24.4 µM |
| Cc1cccc(NC(=O)Cn2cnc(-c3noc(-c4ccccc4)n3)c2)c1C | 1.35 µM |

| Structure (SMILES) | IC50 |
| --- | --- |
| NS(=O)(=O)c1cc(C(=O)OCC(=O)c2ccc3c(c2)OCCO3)ccc1Cl | > 50 µM (inactive) |
| O=C(COC(=O)c1ccc(CN2CCCC2=O)cc1)c1ccc2c(c1)OCCO2 | > 50 µM (inactive) |
| O=C(Nc1ccc(-c2cn3ccsc3n2)cc1)c1ccc(Cl)c([N+](=O)[O-])c1 | 1.17 µM |
| Cc1ccc(NC(=O)c2nnn(-c3ccccc3Br)c2C)cc1C | > 50 µM (inactive) |
| CCC1=C(c2ccc(C)cc2)S(=O)(=O)NC1=NCC(=O)NCc1ccccc1F | 35.3 µM |
| O=C(CN1C=NC2=NS(=O)(=O)c3ccccc3N21)Nc1cc(F)ccc1F | 33.4 µM |
| COc1ccc(CN(C(=O)c2cc(-c3ccc(C)cc3)on2)C2CCS(=O)(=O)C2)cc1 (stereo not given) | 17.3 µM |
| O=C(COc1ccc(F)cc1)Nc1cnc(-c2ccc(Cl)cc2)nc1 | 24 µM |
| Cn1c2ccccc2c(=O)c2c(=O)n(Cc3ccccc3)c(-c3ccccc3F)nc21 | 0.127 µM |
| O=C(O)Cc1ccc(Nc2nc3ccccc3n3nnnc23)cc1 | > 50 µM (inactive) |
| O=C(Nc1oc2ccccc2c(=O)c1-c1ccc2c(c1)OCO2)C1CCCCC1 | 30.1 µM |
| O=C(Nc1cc(Cl)ccc1-n1cncn1)c1ccc(S(=O)(=O)N2CCCC2)cc1 | > 50 µM (inactive) |
| COc1ccc(-c2cc3nc([C@H](C)NC(=O)Cc4ccccc4C)nn3cn2)cc1 | 2.38 µM |
| O=C(c1ccc2cc[nH]c2c1)N1CCC(Nc2cccnc2)C1 (stereo not given) | > 50 µM (inactive) |
| Cc1ccc(-n2cc(C(=O)NCc3cccnc3)nn2)cc1C | 22.3 µM |
| Cc1nc(-c2noc(-c3ccncc3)n2)cn1CC(=O)N1CCN(c2ccc(F)cc2)CC1 | > 50 µM (inactive) |
| Cc1noc(-c2cccn(Cc3cccc(C(F)(F)F)c3)c2=O)n1 | > 50 µM (inactive) |
| O=C(Nc1ccccc1)c1nc(-c2cn(Cc3ccc(F)cc3)nn2)no1 | 42.4 µM |
| COc1cccc(-c2cc(=O)[nH]c(Nc3nc(C)c4ccccc4n3)n2)c1 | 43.1 µM |

| Structure (SMILES) | IC50 |
| --- | --- |
| O=C(Nc1cccc(-c2nc3ccccc3[nH]2)c1)c1cc2ccccc2oc1=O | 0.429 µM |
| CCC1(C)Cc2c(sc3nc(SCC(=O)Nc4ccc(C(C)=O)cc4)nc(N)c23)CO1 (stereo not given) | 34.9 µM |
| COc1ccc(C2/C(=C(\O)c3ccccc3)C(=O)C(=O)N2c2nc3ccc(F)cc3s2)cc1 (stereo not given) | 17.9 µM |
| COc1cc(C(=O)Nc2ccc(-c3csc(C)n3)cc2)cc(OC)c1OC | > 50 µM (inactive) |
| CCCCCC(=O)N1c2ccccc2NC2=C(C(=O)CC(c3ccc(C(C)(C)C)cc3)C2)C1c1ccncc1 (stereo not given) | 4.7 µM |
| COc1cc(=O)c(C(=O)Nc2ccc(C#N)cc2)nn1-c1cccc(F)c1 | 28.8 µM |
| CCC/C=C\C#CC/C=C\CCCCCCCC(=O)O | 2.37 µM |
| CSc1ncccc1C(=O)NC1(O)C(=O)c2ccccc2C1=O | 4.57 µM |
| CCc1ccc2c(c1)[C@]1(C(=O)N2)[C@@H]2C(=O)N(c3ccc(Cl)cc3Cl)C(=O)[C@@H]2[C@@H]2CCCN21 | > 50 µM (inactive) |
| Cc1ccc(C)c(-c2cc3c(=O)n(Cc4noc(CN5CCCCC5)n4)ccn3n2)c1 | > 50 µM (inactive) |
| CC(C)c1ccc(/C=C/C(=O)N2CCc3ccccc3C2)cc1 | 21.1 µM |
| COc1cc2c(cc1NC(=O)c1ccc(-n3cnnn3)cc1)oc1ccccc12 | 0.691 µM |
| Cc1ccccc1C(=O)OCCN1C(=O)c2cccc3c(N4CCOCC4)ccc(c23)C1=O | > 50 µM (inactive) |
| CCCC(O)CCCCCCCc1cc(O)cc(O)c1C(=O)OC(CCC)CCCCCCCc1cc(O)cc(O)c1 (stereo not given) | 28.6 µM |
| Cc1cc(C)c(O)c(-c2cc(C(=O)Nc3ccccc3Cl)[nH]n2)c1 | 1.75 µM |
| COc1ccc(NC(=O)Cn2c(CS(=O)(=O)c3ccc(C)cc3)nc3ccccc32)cc1 | 6.52 µM |
| Cc1cccc(NC(=O)Cn2c(N3CCOCC3)nc3cc(C)n(C)c3c2=O)c1 | 27.6 µM |
| CC1CCN(Cc2nnc(-c3cn(CC(=O)NC4CCCCC4)c4ccccc34)o2)CC1 | > 50 µM (inactive) |
| Cc1ccc(S(=O)(=O)N2CCC3(CC2)NC(=O)c2ccccc2N3)cc1C | 29.8 µM |

Further lines, results first:

| IC50 | Structure (SMILES) |
| --- | --- |
| > 50 µM (inactive) | Cc1nc2cc(C(=O)NCCC3=CCCCC3)ccc2n1-c1cccc(F)c1 |
| > 50 µM (inactive) | COc1cccc(-n2ccc(=O)c(-c3nc(-c4ccccc4Cl)no3)n2)c1 |
| > 50 µM (inactive) | CC(C)(C)C(=O)Nc1ccc(SCc2nnc(-c3ccccc3)o2)cc1 |
| 1.84 µM | O=C(NCc1ccc2c(c1)OCO2)c1[nH]nc2c1COc1ccccc1-2 |
| 2.55 µM | COc1ccc(COc2ccc3c(C)c(CC(=O)N4CC[C@@]5(O)CCCC[C@H]5C4)c(=O)oc3c2)cc1 |
| > 50 µM (inactive) | Cc1ccc(C)c(-n2c(C)cc(/C=C3/C(=N)N4C(c5ccc(F)cc5)=CSC4=NC3=O)c2C)c1 |
| 27.9 µM | Cc1ccc(C(=O)Nc2nc3n(n2)C(c2ccccc2)CC(=O)N3)cc1 (stereo not given) |
| 18.8 µM | O=C(NCc1ccc(-c2nc3cnccc3o2)cc1)c1ccccc1F |
| 25.3 µM | CCOC(=O)c1nc(Nc2ccc(OC)c(Cl)c2)c2ccccc2n1 |
| 19.5 µM | N#Cc1cccc(S(=O)(=O)N2CCc3nc4ccccc4n3CC2)c1 |
| > 50 µM (inactive) | CC(C)(C)c1cc(CCC(=O)Nc2c3c(nc4c2CCC4)CCCC3)cc(C(C)(C)C)c1O |
| > 50 µM (inactive) | COc1cccc(NC(=O)C2Cn3ccnc3C3(CCN(C(C)=O)CC3)O2)c1 (stereo not given) |
| 18.5 µM | COc1ccc(C(=O)NCCc2nnc3ccc(SCC(=O)NCc4ccc(F)cc4)nn23)cc1 |
| > 50 µM (inactive) | Fc1ccc(Oc2nc(CN3CCOCC3)nc3sc4c(c23)CCCC4)c(Cl)c1 |
| > 50 µM (inactive) | Cc1cc(/C=C2/C(=N)N3C(c4ccccc4)=CSC3=NC2=O)c(C)n1-c1ccc2ccccc2c1 |
| 28.7 µM | O=C1CC(C(=O)Nc2ccccc2Cl)n2nc(-c3ccccc3)cc2N1 (stereo not given) |
| > 50 µM (inactive) | CCOC(=O)c1c(C)oc2nc(CSc3ccccc3)[nH]c(=O)c12 |
| 0.464 µM | CCOc1ccc2c(c1)c(=O)c(C(=O)c1ccc(C)cc1)cn2CC(=O)Nc1ccc(OC)c(OC)c1 |
| 29.7 µM | C=C[C@]1(C)C=C2C(=O)[C@]3(O)OC(=O)[C@@]4(CCCC(C)(C)[C@H]34)[C@@]2(O)CC1 |
| 38.3 µM | Fc1cccc(Cn2cc(-c3noc(-c4cccnc4)n3)nn2)c1 |
| 47.6 µM | O=C1CC(NS(=O)(=O)c2ccc3ccccc3c2)CN1c1cccc(F)c1 (stereo not given) |
| > 50 µM (inactive) | CCC(=O)Nc1ccc2c(c1)nc(CSc1nccc(C)n1)n2CC |

| IC50 | Structure (SMILES) |
| --- | --- |
| > 50 µM (inactive) | Cc1ccc(OCCn2c(=N)n(C(C)C)c3ccccc32)cc1 |
| 3.28 µM | Cc1cc(NC(=O)c2[nH]nc3c2CCc2ccccc2-3)no1 |
| > 50 µM (inactive) | Cc1ccc(C)c(-n2c(N)c(C(=O)NCCc3ccccc3)c3nc4ccccc4nc32)c1 |
| 44.6 µM | Cc1ccc(Nc2nc(NCCc3ccccc3)nc3c2cnn3C)cc1 |
| 21.2 µM | Oc1cc(OCc2cccc(C(F)(F)F)c2)ccc1-c1ccn[nH]1 |
| > 50 µM (inactive) | Cc1ccc(CSC2=NS(=O)(=O)c3ccccc3N2)cc1 |
| 36.9 µM | COc1ccc(-c2nc(CNC(=O)COc3ccc(C)cc3)cs2)cc1 |
| > 50 µM (inactive) | COc1ccc(C(C)NC(=O)c2cnc(-c3ccccc3)nc2-c2ccncc2)cc1 (stereo not given) |
| 34.7 µM | O=C(/C=C/c1c(F)cccc1Cl)N1CCc2ccccc2C1 |
| 2.15 µM | O=C(Nc1cccc(C(F)(F)F)c1)c1cc2c(s1)-c1ccccc1OC2 |
| 14.5 µM | COC(=O)COc1ccc(/C=N/NC(=O)c2ccc(CN3CCc4ccccc4C3)cc2)cc1 |
| > 50 µM (inactive) | Cc1cc(C)c2nc3c(cc2c1)CN(Cc1ccco1)C(=O)O3 |
| 4.19 µM | c1csc(-c2nc(Nc3ccc4c(c3)CCC4)c3ccccc3n2)c1 |
| > 50 µM (inactive) | COc1ccc(C(=O)Nc2ccc3c(c2)C(=O)N(C)c2ccccc2O3)cc1 |
| 39.8 µM | Cc1nn(-c2cccc(F)c2)c2c1C(C(=O)c1ccc(Cl)s1)CC(=O)N2 (stereo not given) |
| 2.34 µM | COc1cccc(NC(=O)c2cnc3c(c2)c(=O)n(C)c(=O)n3C)c1 |
| 3.51 µM | COc1ccc(OC)c(-n2c(SCC(=O)N3CCc4ccccc43)nnc2-c2cccc(S(=O)(=O)N(C)C)c2)c1 |
| 15.9 µM | O=C(Cc1cc(-c2ccc(F)cc2)on1)NCc1ccccc1 |
| 5.8 µM | Cc1cccc(NC(=O)Cn2c(=O)n(Cc3ccc(F)cc3)c(=O)c3sccc32)c1 |
| 2.51 µM | Cc1ccc(NC(=O)c2cnc3c(c2)c(=O)n(C)c(=O)n3C)cc1 |
| 12.5 µM | CC1=C(c2ccc(C)c(C)c2)S(=O)(=O)NC1=NCC(=O)NCCCc1ccccc1 |
